Source: patent US20210095322A1, “HIGH-PURITY STEVIOL GLYCOSIDES” (PureCircle USA Inc., priority 2018, published 2021)

Test: Sweetness perception threshold (FEMA method, 2-AFC vs 1.5% sugar) in neutral water
Format: in vivo, human
Details: 2-AFC, n = 30
Description: A series of experiments were performed to evaluate the effect of Reb AM on taste and flavor profile. The sweetness and taste/flavor modification can influence each other in food and beverage applications. To determine the influence of the taste and flavor modification in different applications, the FEMA (Flavor and Extract Manufacturing Association) prescribes a sensory method that determines the sweetness perception threshold determination presented in Experiment 1, which is discussed below.
Experiment 1 provides the estimate of Reb AM concentration in water that barely contributes to sweetness perception. […] The summary of sweetness perception threshold for selected steviol glycosides is below in Table 11.
Therefore we selected 50 ppm of Reb AM as the recognition threshold concentration.

[1] = 1.5% Sucrose vs 30 ppm Reb AM in neutral water
[2] = 1.5% Sucrose vs 50 ppm Reb AM in neutral water
[3] = 1.5% Sucrose vs 70 ppm of Reb AM in neutral water
[4] = 1.5% Sucrose vs 100 ppm Reb AM in neutral water

Which “% Frequency” value [1] does the source give for OC[C@H]1O[C@@](CO)(O[C@H]2O[C@H](CO)[C@@H](O)[C@H](O)[C@H]2O)[C@@H](O)[C@@H]1O [Sucrose] here?
The value was 96.7%.

And the “PC (paired comparison count, panelists choosing the sample as sweeter)” value (“PC” for short) [1]?
Its value is 29.

And the “% Frequency” value [2]?
Its value is 76.7%.

And the “PC” value [2]?
The value was 23.

What about the “% Frequency” value [3] of the same molecule?
The value was 30%.

And the “PC” value [3]?
Its value is 9.

What about the “% Frequency” value [4] of the same molecule?
The value was 10%.

And the “PC” value [4]?
The value was 3.
